Data as given in patent US20240254119A1 (THIRD HARMONIC BIO, INC., priority 2022, published 2024).

What follows are molecules tested against T1, wtKIT (Homo sapiens, UniProt P10721) (assay: HTRF biochemical assay, wtKIT (phosphorylation of a peptide substrate)). Conditions: Table 4.
T1 construct: 1888289AM in the reaction mixtures
In short: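 wtKIT (5.0 nM) phosphorylating 1 µM FAM-labelled peptide with 400 µM ATP and 10 mM MnCl2 in 100 mM HEPES pH 7.5, 1% DMSO, 3 h at 25 °C. EDTA quench; phosphopeptide detected with anti-phosphotyrosine antibody by HTRF. Enzyme titrated for 10-20% substrate conversion.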

T1 sequence (P10721 26-976): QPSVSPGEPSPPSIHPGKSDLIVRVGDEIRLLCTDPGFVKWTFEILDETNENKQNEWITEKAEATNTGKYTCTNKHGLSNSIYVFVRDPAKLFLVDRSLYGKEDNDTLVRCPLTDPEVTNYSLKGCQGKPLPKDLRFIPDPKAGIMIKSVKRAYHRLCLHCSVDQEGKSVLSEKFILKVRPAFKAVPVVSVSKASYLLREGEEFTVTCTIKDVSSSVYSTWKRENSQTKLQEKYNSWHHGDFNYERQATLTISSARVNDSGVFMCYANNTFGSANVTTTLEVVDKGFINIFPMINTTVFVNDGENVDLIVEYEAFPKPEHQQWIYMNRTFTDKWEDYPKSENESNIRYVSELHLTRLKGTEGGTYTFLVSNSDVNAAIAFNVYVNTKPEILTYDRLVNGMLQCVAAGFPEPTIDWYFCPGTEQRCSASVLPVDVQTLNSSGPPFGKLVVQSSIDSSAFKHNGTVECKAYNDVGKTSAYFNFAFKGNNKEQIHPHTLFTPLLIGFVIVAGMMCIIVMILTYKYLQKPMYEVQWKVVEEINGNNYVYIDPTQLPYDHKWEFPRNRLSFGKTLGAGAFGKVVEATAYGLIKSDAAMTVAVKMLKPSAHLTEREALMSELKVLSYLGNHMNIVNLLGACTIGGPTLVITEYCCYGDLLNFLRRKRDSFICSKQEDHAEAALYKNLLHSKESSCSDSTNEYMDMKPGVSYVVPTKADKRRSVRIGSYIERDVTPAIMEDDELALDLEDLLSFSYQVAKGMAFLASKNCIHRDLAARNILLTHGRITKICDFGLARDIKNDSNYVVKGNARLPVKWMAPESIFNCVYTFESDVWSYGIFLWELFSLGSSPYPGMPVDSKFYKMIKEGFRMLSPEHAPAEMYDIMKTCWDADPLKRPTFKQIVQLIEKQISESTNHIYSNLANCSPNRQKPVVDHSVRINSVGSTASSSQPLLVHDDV

| Compound | IC50 |
| --- | --- |
| Cc1ccc(-c2noc([C@H]3C[C@@H]3F)n2)cc1NC(=O)c1cnc2cc(COCC3(O)COC3)ccn12 [Compound I-490, N-(5-(5-((1R,2S)-2-fluorocyclopropyl)-1,2,4-oxadiazol-3-yl)-2-methylphenyl)-7-(((3-hydroxyoxetan-3-yl)methoxy)methyl)imidazo[1,2-a]pyridine-3-carboxamide] | ≤ 50 nM |
| CCOc1ccn2c(C(=O)Nc3cc(-c4noc(C[C@H](O)C(F)F)n4)ccc3C)cnc2c1 [Compound I-566, (S)—N-(5-(5-(3,3-difluoro-2-hydroxypropyl)-1,2,4-oxadiazol-3-yl)-2-methylphenyl)-7-ethoxyimidazo[1,2-a]pyridine-3-carboxamide] | ≤ 50 nM |
| Cc1ccc(-c2ncon2)cc1NC(=O)c1cnn2ccccc12 [Compound I-640, N-(2-methyl-5-(1,2,4-oxadiazol-3-yl)phenyl)pyrazolo[1,5-a]pyridine-3-carboxamide] | 50 to 500 nM |
| Cc1ccc(-c2noc([C@H]3C[C@@H]3F)n2)cc1NC(=O)c1cnc2cc(COCC(C)O)ccn12 (single isomer, unassigned) [Compound I-468, N-[5-[5-[(1R,2S)-2-fluorocyclopropyl]-1,2,4-oxadiazol-3-yl]-2-methyl-phenyl]-7-[[(2R*)-2-hydroxypropoxy]methyl]imidazo[1,2-a]pyridine-3-carboxamide] | ≤ 50 nM |
| Cc1ccn2c(C(=O)Nc3cc(-c4noc(-c5ccnnc5)n4)ccc3C)cnc2c1 [Compound I-546] | 50 to 500 nM |
| Cc1ccc(-c2noc(C[C@H](O)C(F)F)n2)cc1NC(=O)c1cnc2cc(COCc3c[nH]cn3)ccn12 [Compound I-585, (S)-7-(((1H-imidazol-4-yl)methoxy)methyl)-N-(5-(5-(3,3-difluoro-2-hydroxypropyl)-1,2,4-oxadiazol-3-yl)-2-methylphenyl)imidazo[1,2-a]pyridine-3-carboxamide] | ≤ 50 nM |
| Cc1ccc(-c2noc(C[C@H](O)C(F)F)n2)cc1NC(=O)c1cnc2cc(OCCCCO)ccn12 [Compound I-568, (S)—N-(5-(5-(3,3-difluoro-2-hydroxypropyl)-1,2,4-oxadiazol-3-yl)-2-methylphenyl)-7-(4-hydroxybutoxy)imidazo[1,2-a]pyridine-3-carboxamide] | ≤ 50 nM |
| CCc1nc(-c2ccc(C)c(NC(=O)c3cnc4cc(-c5csc(CO)n5)ccn34)c2)no1 [Compound I-672] | ≤ 50 nM |
| COCc1ccn2c(C(=O)Nc3cc(-c4noc(C(C)O)n4)ccc3C)cnc2c1 (centres unmarked) [Compound I-735] | 500 to 5000 nM |
| Cc1nc(-c2ccc(C)c(NC(=O)c3cnc4cc(-c5cscn5)ccn34)c2)no1 [Compound I-548, N-(2-methyl-5-(5-methyl-1,2,4-oxadiazol-3-yl)phenyl)-7-(thiazol-4-yl)imidazo[1,2-a]pyridine-3-carboxamide] | ≤ 50 nM |
| Cc1ccc(-c2noc(N3CC(F)(F)C3)n2)cc1NC(=O)c1cnn2cc(F)ccc12 [Compound I-626] | 50 to 500 nM |
| Cc1ccc(-c2noc([C@H]3C[C@@H]3F)n2)cc1NC(=O)c1cnc2cc(COCCS(C)(=O)=O)ccn12 [Compound I-454, N-[5-[5-[(1R,2S)-2-fluorocyclopropyl]-1,2,4-oxadiazol-3-yl]-2-methyl-phenyl]-7-(2-methylsulfonylethoxymethyl)imidazo[1,2-a]pyridine-3-carboxamide] | ≤ 50 nM |
| Cc1ccc(-c2noc([C@H]3C[C@@H]3F)n2)cc1NC(=O)c1cnc2cc(-c3ccn(C)n3)ccn12 [Compound I-529, N-(5-(5-((1R,2S)-2-fluorocyclopropyl)-1,2,4-oxadiazol-3-yl)-2-methylphenyl)-7-(1-methyl-1H-pyrazol-3-yl)imidazo[1,2-a]pyridine-3-carboxamide] | ≤ 50 nM |
| Cc1ccc(-c2noc([C@H]3C[C@@H]3F)n2)cc1NC(=O)c1cnc2cc3c(cn12)COC3C (single isomer, unassigned) [Compound I-470, (6S*)—N-[5-[5-[(1R,2S)-2-fluorocyclopropyl]-1,2,4-oxadiazol-3-yl]-2-methyl-phenyl]-6-methyl-5-oxa-1,10-diazatricyclo[7.3.0.03,7]dodeca-2,7,9,11-tetraene-12-carboxamide] | ≤ 50 nM |
